Values quoted from earlier work as cited in patent publication US8613910B2, “Flavonoids as synergists for enhancing the action of self-tanning substances” (Merck Patent GmbH, priority 2005, dated 2013).

Settings: amongst the hydroxyflavone structures investigated, entire pH range

## O=c1c(O)c(-c2ccc(O)c(O)c2)oc2cc(O)cc(O)c12 [quercetin, 3,3′,4′,5,7-pentahydroxyflavone]
  antioxidant action: greatest activity
